Test results as given in ChEMBL document CHEMBL5356980, “Linker optimization and activity validation of a cell surface vimentin targeted homo-dimeric peptoid antagonist for lung cancer stem cells” (Bioorg Med Chem, 2024).
The source made the active and inactive calls. The rule behind the calls is not given here.

Assays:
[1] = tested on: NCI-H1299; assay: Antimigratory activity against human NCI-H1299 assessed as inhibition of cell migration incubated for 24 hrs by crystal violet staining based microscopic analysis; type: functional; conditions: NCI-H1299, 24 h
[2] = tested on: NCI-H1299; assay: Induction of apoptosis in human NCI-H1299 cells assessed as early apoptotic cells at 10 uM incubated for 12 hrs by annexin V/PI staining based flow cytometry analysis (reference value: 0.73%); type: functional
[3] = tested on: NCI-H460; assay: Induction of apoptosis in human NCI-H460 cells assessed as late apoptotic cells at 10 uM incubated for 12 hrs by annexin V/PI staining based flow cytometry analysis (reference value: 6.19%); type: functional
[4] = tested on: NCI-H460; assay: Induction of apoptosis in human NCI-H460 cells assessed as early apoptotic cells at 20 uM incubated for 12 hrs by annexin V/PI staining based flow cytometry analysis (reference value: 0.00%); type: functional
[5] = tested on: NCI-H460; assay: Induction of apoptosis in human NCI-H460 cells assessed as viable cells at 10 uM incubated for 12 hrs by annexin V/PI staining based flow cytometry analysis (reference value: 90.9%); type: functional; conditions: read-out: Activity
[6] = tested on: NCI-H1299; assay: Antiproliferative activity against human NCI-H1299 cells expressing vimentin assessed as inhibition of cell growth incubated for 3 days by MTS assay; type: functional, cell-based; conditions: NCI-H1299, 72 h
[7] = tested on: NCI-H460; assay: Antiproliferative activity against human NCI-H460 cells expressing vimentin assessed as inhibition of cell growth incubated for 3 days by MTS assay; type: functional, cell-based; conditions: NCI-H460, 72 h
[8] = tested on: NCI-H460; assay: Induction of apoptosis in human NCI-H460 cells assessed as necrotic cells at 10 uM incubated for 12 hrs by annexin V/PI staining based flow cytometry analysis (reference value: 0.20%); type: functional
[9] = tested on: NCI-H460; assay: Induction of apoptosis in human NCI-H460 cells assessed as viable cells at 20 uM incubated for 12 hrs by annexin V/PI staining based flow cytometry analysis (reference value: 90.9%); type: functional; conditions: read-out: Activity
[10] = tested on: NCI-H1299; assay: Induction of apoptosis in human NCI-H1299 cells assessed as late apoptotic cells at 20 uM incubated for 12 hrs by annexin V/PI staining based flow cytometry analysis (reference value: 2.05%); type: functional
[11] = tested on: NCI-H460; assay: Inhibition of cell migration of human NCI-H460 cells assessed as reduction in wound closure incubated for 24 hrs by crystal violet staining based microscopic analysis; type: functional; conditions: NCI-H460, 24 h
[12] = tested on: HBEC3-KT; assay: Antiproliferative activity against human HBEC3-KT cells assessed as inhibition of cell growth incubated for 3 days by MTS assay; type: toxicity, cell-based; conditions: 72 h, time 3 day
[13] = tested on: NCI-H1299; assay: Induction of apoptosis in human NCI-H1299 cells assessed as necrotic cells at 20 uM incubated for 12 hrs by annexin V/PI staining based flow cytometry analysis (reference value: 2.62%); type: functional
[14] = tested on: NCI-H1299; assay: Antiproliferative activity against human NCI-H1299 cells assessed as inhibition of cell growth measured for 18 hrs by MTS assay; type: functional, cell-based
[15] = tested on: NCI-H358; assay: Antiproliferative activity against human NCI-H358 cells expressing vimentin assessed as inhibition of cell growth incubated for 3 days by MTS assay; type: functional, cell-based; conditions: NCI-H358, 72 h
[16] = tested on: NCI-H1299; assay: Induction of apoptosis in human NCI-H1299 cells assessed as viable cells at 10 uM incubated for 12 hrs by annexin V/PI staining based flow cytometry analysis (reference value: 94.6%); type: functional; conditions: read-out: Activity
[17] = tested on: NCI-H460; assay: Inhibition of cell migration of human NCI-H460 cells incubated for 24 hrs by crystal violet staining based microscopic analysis; type: functional; conditions: dose <= 10000.0 nM
[18] = tested on: NCI-H460; assay: Inhibition of colony formation in human NCI-H460 cells at 300 nM incubated for 8 days by crystal violet staining based analysis; type: functional, cell-based; conditions: time 8.0 day
[19] = tested on: NCI-H460; assay: Induction of apoptosis in human NCI-H460 cells assessed as late apoptotic cells at 20 uM incubated for 12 hrs by annexin V/PI staining based flow cytometry analysis (reference value: 6.19%); type: functional
[20] = tested on: NCI-H460; assay: Inhibition of cell migration of human NCI-H460 cells assessed as reduction in wound distance at 10 uM incubated for 24 hrs by crystal violet staining based microscopic analysis; type: functional
[21] = tested on: NCI-H2122; assay: Antiproliferative activity against human NCI-H2122 cells expressing vimentin assessed as inhibition of cell growth incubated for 3 days by MTS assay; type: functional, cell-based; conditions: NCI-H2122, 72 h
[22] = tested on: NCI-H460; assay: Induction of apoptosis in human NCI-H460 cells assessed as early apoptotic cells at 10 uM incubated for 12 hrs by annexin V/PI staining based flow cytometry analysis (reference value: 0.00%); type: functional
[23] = tested on: NCI-H1299; assay: Induction of apoptosis in human NCI-H1299 cells assessed as early apoptotic cells at 20 uM incubated for 12 hrs by annexin V/PI staining based flow cytometry analysis (reference value: 0.73%); type: functional
[24] = tested on: NCI-H1299; assay: Inhibition of cell migration of human NCI-H1299 cells assessed as reduction in wound closure incubated for 24 hrs by crystal violet staining based microscopic analysis; type: functional; conditions: NCI-H1299, 24 h
[25] = tested on: NCI-H1299; assay: Induction of apoptosis in human NCI-H1299 cells assessed as viable cells at 20 uM incubated for 12 hrs by annexin V/PI staining based flow cytometry analysis (reference value: 94.6%); type: functional; conditions: read-out: Activity
[26] = tested on: NCI-H1299; assay: Antiproliferative activity against human NCI-H1299 cells assessed as inhibition of cell growth measured for 2 hrs by MTS assay; type: functional, cell-based; conditions: NCI-H1299, 2 h
[27] = target: Vimentin (Homo sapiens, UniProt P08670); assay: Binding affinity to his-tagged recombinant Vimentin (unknown origin) assessed as dissociation constant by ELISA analysis
Chain of Vimentin (P08670 whole entry): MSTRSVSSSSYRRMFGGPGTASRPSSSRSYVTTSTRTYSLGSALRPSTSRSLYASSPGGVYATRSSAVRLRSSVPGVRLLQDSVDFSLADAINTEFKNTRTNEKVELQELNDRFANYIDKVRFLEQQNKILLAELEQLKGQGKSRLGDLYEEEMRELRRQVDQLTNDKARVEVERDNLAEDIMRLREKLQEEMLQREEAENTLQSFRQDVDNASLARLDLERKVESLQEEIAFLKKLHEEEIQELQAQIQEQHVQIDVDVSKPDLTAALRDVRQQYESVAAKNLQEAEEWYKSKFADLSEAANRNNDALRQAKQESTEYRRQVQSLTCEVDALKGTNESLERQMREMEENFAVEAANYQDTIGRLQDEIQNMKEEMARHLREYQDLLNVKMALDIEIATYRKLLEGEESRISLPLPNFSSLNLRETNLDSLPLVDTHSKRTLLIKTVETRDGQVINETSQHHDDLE

[28] = tested on: NCI-H1299; assay: Induction of apoptosis in human NCI-H1299 cells assessed as necrotic cells at 10 uM incubated for 12 hrs by annexin V/PI staining based flow cytometry analysis (reference value: 2.62%); type: functional
[29] = tested on: NCI-H460; assay: Inhibition of colony formation in human NCI-H460 cells incubated for 8 days by crystal violet staining based analysis; type: functional, cell-based
[30] = tested on: NCI-H1299; assay: Induction of apoptosis in human NCI-H1299 cells assessed as late apoptotic cells at 10 uM incubated for 12 hrs by annexin V/PI staining based flow cytometry analysis (reference value: 2.05%); type: functional
[31] = tested on: NCI-H2009; assay: Antiproliferative activity against human NCI-H2009 cells expressing vimentin assessed as inhibition of cell growth incubated for 3 days by MTS assay; type: functional, cell-based; conditions: NCI-H2009, 72 h
[32] = tested on: NCI-H1299; assay: Inhibition of cell migration of human NCI-H1299 cells incubated for 24 hrs by crystal violet staining based microscopic analysis; type: functional; conditions: dose <= 10000.0 nM
[33] = tested on: NCI-H460; assay: Induction of apoptosis in human NCI-H460 cells assessed as necrotic cells at 20 uM incubated for 12 hrs by annexin V/PI staining based flow cytometry analysis (reference value: 0.20%); type: functional
[34] = tested on: NCI-H1299; assay: Inhibition of colony formation in human NCI-H1299 cells incubated for 8 days by crystal violet staining based analysis; type: functional, cell-based
[35] = tested on: NCI-H1299; assay: Inhibition of cell migration of human NCI-H1299 cells assessed as reduction in wound distance at 10 uM incubated for 24 hrs by crystal violet staining based microscopic analysis; type: functional

**Q.** For `COCCN(CC(=O)N[C@@H](CCCCN)C(=O)N[C@H](C)C(=O)NCC(=O)NCCCCC(NC(=O)CNC(=O)[C@@H](C)NC(=O)[C@H](CCCCN)NC(=O)CN(CCOC)C(=O)CN(Cc1ccc2c(c1)OCO2)C(=O)CN(CC(C)C)C(=O)CN(CCCCN)C(=O)CN(CCCCN)C(=O)CN(CC(C)C)C(=O)CNc1cccc(C(=O)c2ccccc2)c1)C(N)=O)C(=O)CN(Cc1ccc2c(c1)OCO2)C(=O)CN(CC(C)C)C(=O)CN(CCCCN)C(=O)CN(CCCCN)C(=O)CN(CC(C)C)C(=O)CNc1ccc(C(=O)c2ccccc2)cc1` (some centres not stated), which IC50 [1] is on record?
**A.** Its IC50 is about 2 µM.

**Q.** And the Activity [2]?
**A.** The Activity was 0.44%.

**Q.** What about the Activity [3] of the same molecule?
**A.** Its Activity is 15.3%.

**Q.** What about the Activity [4] of the same molecule?
**A.** Its Activity is 1.09%.

**Q.** What about the viability at 10 µM [5] of the same molecule?
**A.** The viability at 10 µM was 62.2%.

**Q.** What about the IC50 [6] of the same molecule?
**A.** The IC50 was 6.7 µM.

**Q.** And the IC50 [7]?
**A.** Its IC50 is 8.6 µM.

**Q.** And the Activity [8]?
**A.** The Activity was 1.3%.

**Q.** And the viability at 20 µM [9]?
**A.** Its viability at 20 µM is 0.06%.

**Q.** And the Activity [10]?
**A.** Its Activity is 26%.

**Q.** And the IC50 [11]?
**A.** Its IC50 is 4 µM.

**Q.** And the Activity [12]?
**A.** Its Activity is “Non-Toxic”.

**Q.** And the Activity [13]?
**A.** The Activity was 1.37%.

**Q.** What about the Activity [14] of the same molecule?
**A.** Its Activity is “inactive”.

**Q.** What about the IC50 [15] of the same molecule?
**A.** Its IC50 is 12.8 µM.

**Q.** What about the viability at 10 µM [16] of the same molecule?
**A.** Its viability at 10 µM is 50.5%.

**Q.** And the inhibition [17]?
**A.** The inhibition was “Dose-Dependent Effect”.

**Q.** What about the inhibition [18] of the same molecule?
**A.** Its inhibition is “Active”.

**Q.** What about the Activity [19] of the same molecule?
**A.** Its Activity is 45.5%.

**Q.** What about the inhibition [20] of the same molecule?
**A.** The inhibition was “Active”.

**Q.** And the IC50 [21]?
**A.** The IC50 was 30.5 µM.

**Q.** And the Activity [22]?
**A.** Its Activity is 1.15%.

**Q.** What about the Activity [23] of the same molecule?
**A.** Its Activity is 0.46%.

**Q.** What about the IC50 [24] of the same molecule?
**A.** The IC50 was 2 µM.

**Q.** And the viability at 20 µM [25]?
**A.** Its viability at 20 µM is 21.3%.

**Q.** And the IC50 [26]?
**A.** Its IC50 is about 21 µM.

**Q.** What about the Kd [27] of the same molecule?
**A.** The Kd was about 0.1 µM.

**Q.** And the Activity [28]?
**A.** Its Activity is 0.98%.

**Q.** What about the IC50 ([29]; NCI-H460, 192 h) of the same molecule?
**A.** Its IC50 is 0.4 µM.

**Q.** What about the inhibition ([29]; time 8.0 day) of the same molecule?
**A.** The inhibition was “Dose-Dependent Effect”.

**Q.** And the Activity [30]?
**A.** The Activity was 8.1%.

**Q.** What about the IC50 [31] of the same molecule?
**A.** The IC50 was 14.3 µM.

**Q.** What about the inhibition [32] of the same molecule?
**A.** The inhibition was “Dose-Dependent Effect”.

**Q.** And the Activity [33]?
**A.** The Activity was 12.8%.

**Q.** And the IC50 ([34]; NCI-H1299, 192 h)?
**A.** Its IC50 is 0.8 µM.

**Q.** And the inhibition ([34]; time 8.0 day)?
**A.** The inhibition was “Dose-Dependent Effect”.

**Q.** And the inhibition [35]?
**A.** The inhibition was “Active”.
